Results published in ChEMBL document CHEMBL1137601, “Catalysis of zinc transfer by D-penicillamine to secondary chelators” (J Med Chem, 2007).

What was measured:
[1] = molecular target: T1, Carboxypeptidase A1 (Bos taurus) (UniProt P00730); assay: Inhibition of bovine ZnCPD pretreated for 200 seconds at 1.5 mM assessed as transfer of zinc(II) from ZnCPD to chelator 4-(2-pyridylazo)-resorcinol; design: scale not given: the % may be the effect or the level left
T1 sequence (whole entry): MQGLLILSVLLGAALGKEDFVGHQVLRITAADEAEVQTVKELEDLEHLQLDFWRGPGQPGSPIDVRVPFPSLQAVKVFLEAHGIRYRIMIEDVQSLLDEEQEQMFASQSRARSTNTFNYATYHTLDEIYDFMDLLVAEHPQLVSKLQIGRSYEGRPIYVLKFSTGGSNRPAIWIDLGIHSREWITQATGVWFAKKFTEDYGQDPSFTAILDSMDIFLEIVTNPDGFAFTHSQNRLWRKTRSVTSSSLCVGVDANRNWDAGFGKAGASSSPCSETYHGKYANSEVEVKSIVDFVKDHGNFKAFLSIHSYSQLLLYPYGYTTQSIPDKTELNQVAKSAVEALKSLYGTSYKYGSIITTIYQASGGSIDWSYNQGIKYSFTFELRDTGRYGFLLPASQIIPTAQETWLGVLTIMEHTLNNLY

[2] = molecular target: T1, Carboxypeptidase A1 (Bos taurus); assay: Inhibition of bovine ZnCPD pretreated at 0.25 mM assessed as residual enzyme activity in presence of 2.5 uM thionenin after 17 mins
[3] = molecular target: T1, Carboxypeptidase A1 (Bos taurus); assay: Inhibition of bovine ZnCPD pretreated at 0.25 mM assessed as residual enzyme activity in presence of 1 mM ethylenediaminetetraacetic acid within 20 mins
[4] = molecular target: T1, Carboxypeptidase A1 (Bos taurus); assay: Inhibition of bovine ZnCPD pretreated at 5 mM assessed as residual enzyme activity in presence of 1 mM ethylenediaminetetraacetic acid within 7 mins

- Activity [1]: 45%
- Activity [2]: 1.5%
- Activity [3]: 1%
- Activity [4]: 0.1%
SMILES: CC(C)(S)[C@@H](N)C(=O)O
